Columns and labels:
CaV2.2 = assay: FLIPR Ca2+ assay, inhibition of endogenous CaV2.2; assay type: cell-based, human; details: for Ca2+ response relative to control response: 3 µM Xt3a pre-treatment, KCl 90 mM/CaCl2 5 mM + nifedipine 10 μM, over 300 s
Description: (§1) SH-SY5Y human neuroblastoma cells (European Collection of Authenticated Cell Culture, Sigma Aldrich, 94030304-1VL) were cultured in RPMI media (ThermoFisher Scientific, Scoresby, Australia) supplemented with 15% foetal bovine serum and L-glutamine (1 mM) and passaged at approximately 80% confluency with TrypLE Express (Thermo Fisher, Australia). For fluorescence imaging, cells were plated on CellBIND (Corning) 384-well black-walled imaging plates at a density of 20,000–30,000 cells/well in complete media and cultured for 48 h at 37 °C/5% CO2.
(§2) Briefly, SH-SY5Y cells were loaded with Calcium 4 no-wash dye (Molecular Devices) diluted in physiological salt solution (composition in mM: NaCl 140, D-glucose 11.5, KCl 5.9, MgCl2 1.4, NaH2PO4 1.2, NaHCO3 5, CaCl2 1.8, HEPES 10) for 30 min at 37 °C. A two-addition FLIPR^Tetra (Molecular Devices) protocol using the following settings was used to measure fluorescence responses: excitation 470–495 nm; emission 515–575 nm; excitation intensity 80%; excitation duration 0.8 s; gain 140; read interval 1/s; read number 300/addition. Responses mediated via endogenously expressed ion channels were elicited by addition of: choline (30 μM)/PNU-120596 (10 μM) for α7 nAChR-mediated responses; nicotine (30 μM) for α3β2/α3β4 nAChR-mediated responses; KCl (90 mM)/CaCl2 (5 mM) for CaV1.3-mediated responses; KCl (90 mM)/CaCl2 (5 mM) + nifedipine (10 μM) for CaV2.2-mediated responses; vertridine (70 μM) for NaV1.2-mediated responses; and veratridine (4 μM)/OD1 (300 nM) for NaV1.7-mediated responses. Raw fluorescence readings were converted to response over baseline using the analysis tool Screenworks 3.1.1.4 (Molecular Devices) and were expressed relative to the maximum increase in fluorescence of control responses and plotted using GraphPad Prism 9.3.1.
(§3) In the cell-based FLIPR assays statistical analysis was performed using GraphPad Prism 9.3.1. Statistical significance was defined as p < 0.05, and determined by one-sample t-test assessing difference to the control value of 100%. In α7 nAChR, α3-containing nAChR, CaV1.3, CaV2.2, NaV1.2 and NaV1.7 channels (Supplementary Fig. 5B), with distribution (t) and degrees of freedom (df) being: t = 0.9683, df = 2 (α7); t = 1.338, df = 2 (α3); t = 1.775, df = 2 (NaV1.2); t = 1.478

CaV1.3 = assay: FLIPR Ca2+ assay, inhibition of endogenous CaV1.3; assay type: cell-based, human; details: for Ca2+ response relative to control response: 3 µM Xt3a pre-treatment, KCl 90 mM/CaCl2 5 mM, over 300 s
Description: as §1, §2, §3

[1] = system: sarcoplasmic reticulum (SR) in mouse extensor digitorum longus (EDL) fibers; assay: SR Ca2+ leak in mechanically-skinned EDL muscle fibers (total SR Ca2+ content, [CaT]SR, after 1 min leak); assay type: cell-based, mouse (C57/Bl6)
Source text: All experiments were approved by The University of Queensland Animal Ethics Committees. Male and female C57/Bl6 2–6-month-old mice were sacrificed by asphyxiation via CO2 exposure and the EDL muscles were rapidly excised. The EDL was pinned at resting length in a petri dish lined with Sylgard 184 (Dow Corning, Midland, MI) and immersed in paraffin oil (Ajax Chemicals, Sydney, Australia). Segments of individual fibers were mechanically skinned using jeweler’s forceps and pinned out unstretched under oil[37]–[39]. The skinned fiber was then mounted at 120% of resting length on a force transducer (Myotronic UG, Heidelberg, Germany) before transfer to a 2-ml Perspex bath containing standard K^+-based solution that broadly mimics the intracellular milieu. […] All chemicals were purchased from Sigma-Aldrich (St Louis, MO, USA) unless specified otherwise.
Variations of the standard solution were prepared. To deplete the caffeine releasable Ca^2+ (“full release solution”), 30 mM caffeine was added, [Mg^2+] was lowered to 0.05 mM (total Mg^2+ of 2.1 mM) and free EGTA was adjusted to 0.5 mM (pCa 8.5) to chelate released Ca^2+. To measure the maximum force produced by the skinned fiber, all HDTA was replaced by EGTA (relaxing solution) or CaEGTA (maximum Ca^2+ activating solution). The relaxing solution contained 50 mM EGTA and no added Ca^2+ (pCa > 9) and the maximum Ca^2+-activating solution contained 49.5 mM Ca^2+ (pCa 4.7), with total Mg^2+ of 10.3 and 8.1 mM, respectively, to maintain the free [Mg^2+] at 1 mM. A “leak solution” was also prepared, where [Mg^2+] set at 0.1 mM (total Mg^2+ of 3.4 mM) to increase the PO of RyR and with 2 mM EGTA (pCa ~8.5) to chelate leaky Ca^2+ from the SR. […] The BAPTA solution used to pre-equilibrate fibers before lysing was similar to the standard K-HDTA solution but EGTA was replaced with 0.1–1.6 mM BAPTA[37],[39].
The skinned fiber was then equilibrated for 20 s in a solution with a set [BAPTA] before being placed in a freshly triturated emulsion of Triton X-100 in paraffin oil (TX–oil) (10% v/v). The Ca^2+ released upon the membrane lysing rapidly binds to the known amount of BAPTA present within the fiber and to other sites, predominantly troponin C (TnC). The pre-equilibrating [BAPTA] was chosen such that the fiber produced a finite, non-maximal force response upon lysis. Pre-treatment of the fiber with “full release solution” allowed the non-SR Ca^2+ content of the skinned fiber to be assayed. The total amount of Ca^2+ present in the fiber could be calculated from the [BAPTA] in the equilibration solution and the magnitude of the force response. Data are presented as mean ± SD, with n denoting the number of fibers examined. Statistical significance (p < 0.05) was determined with One-way ANOVA.

φ-Xibalbin3-Xt3a
Ca2+ response relative to control response (CaV2.2; replicate 1): 99.2207% | Ca2+ response relative to control response (CaV2.2; replicate 2): 92.2928% | Ca2+ response relative to control response (CaV2.2; replicate 3): 79.9392% | inhibition of Ca2+ responses (CaV2.2; Xt3a 3 µM): did not inhibit Ca^2+ responses | Ca2+ response relative to control response (CaV1.3; replicate 1): 100.265% | Ca2+ response relative to control response (CaV1.3; replicate 2): 98.0302% | Ca2+ response relative to control response (CaV1.3; replicate 3): 95.1795% | inhibition of Ca2+ responses (CaV1.3; Xt3a 3 µM): did not inhibit Ca^2+ responses | efficiency to increase SR Ca2+ leakage (order) ([1]; 10 nM): Xt3a > Xt3a-D1 ~ IpTxA > Xt3a-D2 | depletion of [CaT]SR ([1]; 10 nM peptide in leak solution, 1 min leak, mean ± SD, control leak 18 ± 7%): 76 ± 5% | Relative amount of total Ca2+ left in the SR ([CaT]SR) ([1]; 10 nM peptide, 1 min leak, relative to Pre, fiber 2 of column): 20.6 | Relative amount of total Ca2+ left in the SR ([CaT]SR) ([1]; 10 nM peptide, 1 min leak, relative to Pre, fiber 3 of column): 24.9 | Relative amount of total Ca2+ left in the SR ([CaT]SR) ([1]; 10 nM peptide, 1 min leak, relative to Pre, fiber 4 of column): 22.9 | Relative amount of total Ca2+ left in the SR ([CaT]SR) ([1]; 10 nM peptide, 1 min leak, relative to Pre, fiber 5 of column): 23.5 | Relative amount of total Ca2+ left in the SR ([CaT]SR) ([1]; 10 nM peptide, 1 min leak, relative to Pre, fiber 6 of column): 22.7 | Relative amount of total Ca2+ left in the SR ([CaT]SR) ([1]; 10 nM peptide, 1 min leak, relative to Pre, fiber 7 of column): 27.4 | Relative amount of total Ca2+ left in the SR ([CaT]SR) ([1]; 10 nM peptide, 1 min leak, relative to Pre, fiber 8 of column): 27.5 | Relative amount of total Ca2+ left in the SR ([CaT]SR) ([1]; 10 nM peptide, 1 min leak, relative to Pre, fiber 9 of column): 25.7 | Relative amount of total Ca2+ left in the SR ([CaT]SR) ([1]; 10 nM peptide, 1 min leak, relative to Pre, fiber 10 of column): 30.9 | Relative amount of total Ca2+ left in the SR ([CaT]SR) ([1]; 10 nM peptide, 1 min leak, relative to Pre, fiber 11 of column): 32.9 | Relative amount of total Ca2+ left in the SR ([CaT]SR) ([1]; 10 nM peptide, 1 min leak, relative to Pre, fiber 12 of column): 22.4 | Relative amount of total Ca2+ left in the SR ([CaT]SR) ([1]; 10 nM peptide, 1 min leak, relative to Pre, fiber 13 of column): 13.3 | Relative amount of total Ca2+ left in the SR ([CaT]SR), mean ([1]; 10 nM peptide, 1 min leak, relative to Pre, mean (n = 13 Xt3a, n = 10 others)): 24.4 | Relative amount of total Ca2+ left in the SR ([CaT]SR) ([1]; 10 nM peptide, 1 min leak, relative to [CaT]SR before the leak (Pre), fiber 1 of column): 21.9
